What was measured:
[1] = system: WT Eco riboswitch 36-mer, biotinylated (RNA, riboswitch) AUUGGGUUCCCUCACCCCAAUGGUUAAUCAAAAAGG; assay: SPR kinetics (1:1 fit); details: Na+ 100 mM, Mg2+ 3 mM; 10 mM Na-HEPES pH 7.5, 25 °C; apparent
[2] = system: Eco 30-mer (crystal construct) (RNA, riboswitch) UUGGGUUCCCUCACCCCAAUCAUAAAAAGG; assay: ITC; details: 10 μM RNA in cell, 100 μM preQ1 in syringe; buffer as in cited work
[3] = system: Eco 30-mer (crystal construct) (RNA, riboswitch) UUGGGUUCCCUCACCCCAAUCAUAAAAAGG; assay: X-ray crystallography (2.30 Å, Mn2+ SAD); details: Mn2+ 5 mM, K+ 100 mM, Mg2+ 2 mM (well solution); Na-cacodylate pH 6.0, spermine, MPD, 20 °C
[4] = system: WT Eco riboswitch 36-mer (RNA, riboswitch) AUUGGGUUCCCUCACCCCAAUGGUUAAUCAAAAAGG; assay: ITC; details: 10 μM RNA in cell, 100 μM preQ1 in syringe; buffer as in cited work
[5] = system: C15U (RNA, riboswitch) AUUGGGUUCCCUCAUCCCAAUGGUUAAUCAAAAAGG; assay: SPR steady state (one-site fit); details: Na+ 100 mM, Mg2+ 3 mM; 10 mM Na-HEPES pH 7.5, 25 °C; preQ1 9.7 to 10,000 μM
[6] = system: G6DAP/C16U (RNA, riboswitch, 2,6-diaminopurine at 6) AUUGGGUUCCCUCACUCCAAUGGUUAAUCAAAAAGG; assay: SPR steady state (one-site fit); details: Na+ 100 mM, Mg2+ 3 mM; 10 mM Na-HEPES pH 7.5, 25 °C; preQ1 1.25 to 200 μM
[7] = system: Eco 33-mer (linker ΔGGU) (RNA, riboswitch) AUUGGGUUCCCUCACCCCAAUUAAUCAAAAAGG; assay: ITC; details: 10 μM RNA in cell, 100 μM preQ1 in syringe; buffer as in cited work
[8] = system: Eco 35-mer (linker ΔG) (RNA, riboswitch) AUUGGGUUCCCUCACCCCAAUGUUAAUCAAAAAGG; assay: ITC; details: 10 μM RNA in cell, 100 μM preQ1 in syringe; buffer as in cited work
[9] = system: U7C (RNA, riboswitch) AUUGGGCUCCCUCACCCCAAUGGUUAAUCAAAAAGG; assay: SPR steady state (one-site fit); details: Na+ 100 mM, Mg2+ 3 mM; 10 mM Na-HEPES pH 7.5, 25 °C; preQ1 9.7 to 10,000 μM; text gives 4.2 ± 0.3 mM
[10] = system: Eco 34-mer (linker ΔGG) (RNA, riboswitch) AUUGGGUUCCCUCACCCCAAUUUAAUCAAAAAGG; assay: ITC; details: 10 μM RNA in cell, 100 μM preQ1 in syringe; buffer as in cited work

Structure (SMILES)	KD [1]	KD [2] [nM]	binding [3]	KD [4] [nM]	KD [5]	KD [6]	KD [7] [nM]	KD [8] [nM]	KD [9]	KD [10] [nM]
N#Cc1c[nH]c2nc(N)[nH]c(=O)c12	15,970 ± 2260 nM									
NCc1c[nH]c2nc(N)[nH]c(=O)c12	120 ± 6 nM	51.9 ± 1.8	yes	57.9 ± 1.5	7,682,000 ± 206,000 nM	77,390 ± 5880 nM	30.2 ± 1.3	33.4 ± 1.9	4,220,000 ± 33,000 nM	14.0 ± 1.6
